From US9708359B2, “Pyrrolopyrimidine nucleosides and analogs thereof” (Chimerix, Inc., priority 2015, dated 2017)

Tests used:
[1] = test system: EBV; experiment: DNA quantitation assay for EBV; format: cell-based, Epstein-Barr virus; settings: human gammaherpesvirus 4, Akata cells
Experimental: DNA Quantitation Assays for EBV and HHV-6B:
Assays for EBV were performed in Akata cells that were induced to undergo a lytic infection with goat anti-human IgG antibody by standard methods. Experimental compounds were diluted in plates. Akata cells were added to the plates and incubated. For HHV-6, compounds were serially diluted then uninfected HSB-2 or Molt-3 cells were added to each well. Infection was initiated by adding HHV-6A infected HSB-2 cells, or HHV-6B infected Molt-3 cells, and incubated for 7 d at 37° C. For all assays, denaturation buffer was added to each well to denature the DNA and an aliquot was aspirated through a nylon membrane. The membranes were then allowed to dry before equilibration in DIG. Specific digoxigenin (DIG)-labeled probes were prepared for each virus according to the manufacturer's protocol. Detection of specifically bound DIG probe was performed with anti-DIG antibody using the manufacturer's protocol. An image of the photographic film was captured and quantified and compound concentrations sufficient to reduce the accumulation of viral DNA by 50% (EC50), were interpolated from the experimental data.
Assays for EBV were performed in Akata cells that were induced to undergo a lytic infection with 50 μg/mL of a goat anti-human IgG antibody by standard methods. […]

[2] = Cytotoxicity in lymphocyte assays, BCBL-1 cells; format: cell-based; settings: human, parallel to HHV-8 assay
Experimental: Every antiviral assay included a parallel cytotoxicity assay with the same cells used for each virus, the same cell number, the same drug concentrations, and the same incubation times to provide the same drug exposure. To ensure that the cytotoxicity of all compounds could be compared directly, a standard neutral red uptake cytotoxicity assay for all compounds in confluent HFF cells with a 7 d incubation period was performed.
Cytotoxicity in Lymphocyte Assays:
Cell viability in all assays with lymphocytes was assessed with a luminescent Cell Viability Assay. Briefly, assay plates were incubated at ambient temperature for 30 min then luminescent reagent was added to each well and the plates were mixed to lyse the cells. Plates were then incubated for at ambient temperature and the luminescence was quantified on a luminometer. Standard methods were used to calculate drug concentrations that inhibited the proliferation of cells by 50% (CC50).
Cell viability in all assays with lymphocytes was assessed with the CellTiter-Glo Luminescent Cell Viability Assay (Promega). […] Plates were then incubated for an additional 10 min at ambient temperature and the luminescence was quantified on a luminometer. […]

[3] = test system: murine norovirus (MNV) CR3; experiment: Study No. 2: efficacy against Murine Norovirus infection in mice; format: in vivo, BALB/c mice; settings: twice daily 300 mg/kg starting 2 days prior to infection, 10^4 PFU
Experimental: Study No. 2 evaluated the efficacy of twice-daily dosing of Compound 1 at 150 mg/kg or 300 mg/kg, initiated prior to infection of mice with 10^4 pfu of MNV CR3. A control group of mice treated with vehicle was also included. The 150 mg/kg dose was started either 2 days (39 hours) prior to inoculation, 1 day (15 hours) prior to inoculation, or on the day of (3 hours prior to) inoculation; the 300 mg/kg dose was started 2 days (39 hours) prior to infection.
This study tested the ability of Compound 1 to protect mice from or reduce murine norovirus infection. Compound was delivered twice daily at indicated doses via oral gavage starting 2 days prior to inoculation, 1 day prior to inoculation or at time of inoculation. A control group of mice treated with vehicle only was also included. Mice were infected with 10^4 PFU of murine norovirus by pipetting virus into mouth 3 hours after the Day 0 dose. All samples were titered by plaque assay.
For both studies, compound was delivered via oral gavage at the indicated doses and times prior to infection. Mice were infected with murine norovirus CR3 by pipetting virus into mouth 3 hours after the first day 0 dose of Compound 1 was given. Following infection, compound was administered twice daily through day 3 post-infection.
The mice used were ˜20 gram, 8-12 week old female BALB/c mice in groups of 5. […]

Cc1nc(N)c2c(C(N)=O)cn([C@@H]3O[C@H](CO)[C@@H](O)[C@H]3O)c2n1 [Compound 1, 4-amino-7-((2R,3R,4S,5R)-3,4-dihydroxy-5-(hydroxymethyl)tetrahydrofuran-2-yl)-2-methyl-7H-pyrrolo[2,3-d]pyrimidine-5-carboxamide]
EC50 [1]: 7.15 µM | CC50 [2]: 46.8 µM | murine norovirus titer in tissue and feces [3]: significantly reduces murine norovirus titer both in tissue and feces
